The values below come from patent US9096548B2, “Pyrazine amide compounds” (Boehringer Ingelheim International GmbH, priority 2013, dated 2015).

Usually IC50 stands for the concentration needed to halve the response being measured.

Each structure is given as a SMILES string. Where two headings read alike, the source gives them in different places.

This test deals with T1, ENaC (Epithelial Sodium Channel) (Mus musculus, UniProt Q61180+Q9WU38+Q9WU39).
T1 construct: Mouse kidney M−1 cells were cultivated in DMEM; endogenous in cells; host or cells: Mouse kidney M-1 cells, cultivated with dexamethasone on transwell filters
T1 sequence (Q61180 1-699): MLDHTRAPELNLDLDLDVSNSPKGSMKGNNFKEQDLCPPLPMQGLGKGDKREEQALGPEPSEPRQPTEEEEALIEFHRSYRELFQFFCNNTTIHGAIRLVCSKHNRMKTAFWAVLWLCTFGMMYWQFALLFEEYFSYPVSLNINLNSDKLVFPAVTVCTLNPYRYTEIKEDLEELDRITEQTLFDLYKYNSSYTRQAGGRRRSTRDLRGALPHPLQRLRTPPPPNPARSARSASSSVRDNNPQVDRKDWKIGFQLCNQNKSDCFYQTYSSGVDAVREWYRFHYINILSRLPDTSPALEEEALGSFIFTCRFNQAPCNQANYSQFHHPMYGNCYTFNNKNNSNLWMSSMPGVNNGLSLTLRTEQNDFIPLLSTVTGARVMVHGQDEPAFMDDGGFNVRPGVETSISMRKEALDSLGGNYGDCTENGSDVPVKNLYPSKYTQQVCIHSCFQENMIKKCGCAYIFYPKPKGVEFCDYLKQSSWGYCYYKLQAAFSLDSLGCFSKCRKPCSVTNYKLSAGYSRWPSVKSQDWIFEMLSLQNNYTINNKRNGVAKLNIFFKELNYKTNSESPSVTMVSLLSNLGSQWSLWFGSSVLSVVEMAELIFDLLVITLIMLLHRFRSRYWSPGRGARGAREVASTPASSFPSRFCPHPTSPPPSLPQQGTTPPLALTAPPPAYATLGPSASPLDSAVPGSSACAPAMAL
T1 sequence (Q9WU38 1-638): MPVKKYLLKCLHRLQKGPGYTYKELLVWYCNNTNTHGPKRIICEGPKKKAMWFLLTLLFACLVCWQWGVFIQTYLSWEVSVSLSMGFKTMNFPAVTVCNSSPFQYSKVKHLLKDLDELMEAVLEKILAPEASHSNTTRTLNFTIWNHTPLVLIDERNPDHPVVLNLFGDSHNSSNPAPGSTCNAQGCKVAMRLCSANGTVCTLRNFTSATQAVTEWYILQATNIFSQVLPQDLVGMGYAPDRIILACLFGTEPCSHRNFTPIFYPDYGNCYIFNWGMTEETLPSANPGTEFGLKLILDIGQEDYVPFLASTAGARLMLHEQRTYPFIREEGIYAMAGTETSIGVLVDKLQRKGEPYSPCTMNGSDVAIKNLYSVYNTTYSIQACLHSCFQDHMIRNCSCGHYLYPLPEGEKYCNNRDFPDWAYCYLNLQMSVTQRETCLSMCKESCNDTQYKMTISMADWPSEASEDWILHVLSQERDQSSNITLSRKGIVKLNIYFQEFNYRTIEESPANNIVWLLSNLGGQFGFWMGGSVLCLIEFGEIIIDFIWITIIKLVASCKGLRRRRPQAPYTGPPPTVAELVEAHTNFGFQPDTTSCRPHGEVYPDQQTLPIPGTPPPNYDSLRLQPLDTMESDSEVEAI
T1 sequence (Q9WU39 1-655): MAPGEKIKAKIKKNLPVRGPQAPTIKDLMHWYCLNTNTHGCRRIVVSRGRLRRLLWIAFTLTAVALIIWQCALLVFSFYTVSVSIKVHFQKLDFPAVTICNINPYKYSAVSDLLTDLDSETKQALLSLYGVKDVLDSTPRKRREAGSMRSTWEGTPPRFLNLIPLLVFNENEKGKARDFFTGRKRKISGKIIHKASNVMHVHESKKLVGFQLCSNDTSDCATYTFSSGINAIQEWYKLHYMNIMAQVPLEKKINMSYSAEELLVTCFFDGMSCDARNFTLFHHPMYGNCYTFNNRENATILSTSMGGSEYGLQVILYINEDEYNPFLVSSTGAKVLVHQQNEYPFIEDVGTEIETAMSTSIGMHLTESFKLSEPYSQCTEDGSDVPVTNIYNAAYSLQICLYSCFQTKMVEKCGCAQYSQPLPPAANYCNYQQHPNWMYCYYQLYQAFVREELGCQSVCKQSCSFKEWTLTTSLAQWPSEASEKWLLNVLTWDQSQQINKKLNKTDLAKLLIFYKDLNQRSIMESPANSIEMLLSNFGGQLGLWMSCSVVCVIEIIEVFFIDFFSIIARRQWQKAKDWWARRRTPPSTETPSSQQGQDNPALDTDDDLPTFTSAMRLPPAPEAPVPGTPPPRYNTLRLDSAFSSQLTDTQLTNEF
In words: Ussing Chamber assay (short circuit current, amiloride sensitive I_SC). It counts as cell-based. The note with it: Ussing chamber, mouse kidney M-1 cells, short circuit current, read-out: IC50. In short, it runs like this: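 Mouse kidney M-1 cells grown 10–12 days on filters with 5 μM dexamethasone, measured in Caco-2 transport buffer at 37° C under voltage clamp. Compound applied apically at 3 μM or 1-3-10 μM; 3 μM amiloride added at end. Short circuit current inhibition given as percent of amiloride effect or IC50.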

[1] abbreviates: value printed in the example text with μM.

With `N#Cc1ccc(CCC[N+]2(CCCc3ccc(C#N)cc3)CCC[C@H](NC(=O)c3nc(Cl)c(N)nc3N)C2)cc1` [Example 10.8, 1,1-Bis-[3-(4-cyano-phenyl)-propyl]-3-[(3,5-diamino-6-chloro-pyrazine-2-carbonyl)-amino]-piperidinium chloride], where the note is “compound added to the apical solution”, the half-inhibitory concentration (IC50) came to 0.034 µM.
For `Nc1nc(N)c(C(=O)NC2CCC[N+](CCCc3cccc(O)c3)(CCCc3cccc(O)c3)C2)nc1Cl` (centres unmarked) [Example 10.9, 3-[(3,5-Diamino-6-chloro-pyrazine-2-carbonyl)-amino]-1,1-bis-[3-(3-hydroxy-phenyl)propyl]-piperidinium chloride], where the note is “unit inferred”, the IC50 was found to be 0.013 µM.
Consider `COC(=O)COc1cccc(CCC[N+]2(CCCc3cccc(OCC(=O)OC)c3)CCC[C@H](NC(=O)c3nc(Cl)c(N)nc3N)C2)c1` [Example 10.10, (S)-3-[(3,5-Diamino-6-chloro-pyrazine-2-carbonyl)-amino]-1,1-bis-[3-(3-methoxycarbonylmethoxy-phenyl)-propyl]-piperidinium chloride], for which, under setting [1], the IC50 was 0.025 µM.
For `Cn1ccnc1CNC(=O)COc1cccc(CCC[N+]2(CCCc3cccc(OCC(=O)NCc4nccn4C)c3)CCC[C@H](NC(=O)c3nc(Cl)c(N)nc3N)C2)c1` [Example 10.11, (S)-3-[(3,5-Diamino-6-chloro-pyrazine-2-carbonyl)-amino]-1,1-bis-[3-(3-{[(1-methyl-1H-imidazol-2-ylmethyl)-carbamoyl]-methoxy}-phenyl)-propyl]-piperidinium hydroxide], the IC50 (unit inferred) came out at 0.007 µM.
Still for that read-out and setting: the figure for `CCOC(=O)C[N+]1(CCCc2ccc(OC)cc2)CCCC(NC(=O)c2nc(Cl)c(N)nc2N)C1` (centres unmarked) [Example 12, 3-[(3,5-Diamino-6-chloro-pyrazine-2-carbonyl)-amino]-1-ethoxycarbonylmethyl-1-[3-(4-methoxy-phenyl)-propyl]-piperidinium chloride] is 0.15 µM.
On to `COc1ccc(CCC[N+]2(CC(=O)OC3CCCCC3)CCCC(NC(=O)c3nc(Cl)c(N)nc3N)C2)cc1` (centres unmarked) [Example 12.1, 1-Cyclohexyloxycarbonylmethyl-3-[(3,5-diamino-6-chloro-pyrazine-2-carbonyl)-amino]-1-[3-(4-methoxy-phenyl)-propyl]-piperidinium chloride], for which the IC50 under setting [1] was 0.21 µM.
For the compound `COc1ccc(CCC[N+]2(CC(=O)O)CCCC(NC(=O)c3nc(Cl)c(N)nc3N)C2)cc1` (centres unmarked) [Example 13, 1-Carboxymethyl-3-[(3,5-diamino-6-chloro-pyrazine-2-carbonyl)-amino]-1-[3-(4-methoxy-phenyl)propyl]-piperidinium chloride], the IC50 under setting [1] was above 1 µM.
As to `COC(=O)C[N+]1(CCCc2ccc(OC)cc2)CCCC(NC(=O)c2nc(Cl)c(N)nc2N)C1` (centres unmarked) [Example 14, 3-[(3,5-Diamino-6-chloro-pyrazine-2-carbonyl)-amino]-1-methoxycarbonylmethyl-1-[3-(4-methoxy-phenyl)-propyl]-piperidinium chloride], the IC50 under setting [1] was determined as 0.137 µM.
